Where a name gives a salt, the structure may show the parent alone.
Assays:
Aurora2 = target: T1, Aurora2 (Homo sapiens, UniProt O14965); assay: Aurora2 kinase radioactivity scintillation test using nickel chelate; assay type: biochemical
T1 construct: A complete recombinant Aurora2 enzyme, the N-terminal of which was labeled with histidine, was expressed in E. coli; His tag (N); made in house; host or cells: E. coli
T1 sequence (O14965 1-403): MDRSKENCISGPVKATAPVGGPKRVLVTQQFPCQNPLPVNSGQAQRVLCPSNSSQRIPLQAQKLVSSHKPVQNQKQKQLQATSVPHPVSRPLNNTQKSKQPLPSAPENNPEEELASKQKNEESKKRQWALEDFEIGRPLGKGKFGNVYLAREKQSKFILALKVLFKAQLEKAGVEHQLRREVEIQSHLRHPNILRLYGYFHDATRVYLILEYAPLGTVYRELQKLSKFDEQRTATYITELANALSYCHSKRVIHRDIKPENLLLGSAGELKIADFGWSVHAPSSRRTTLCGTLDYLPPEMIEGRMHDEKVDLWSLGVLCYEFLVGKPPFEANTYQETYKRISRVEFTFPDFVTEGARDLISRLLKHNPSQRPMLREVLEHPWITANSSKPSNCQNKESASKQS
Procedure: The inhibitory effect of the compounds toward the kinase Aurora2 is determined via a radioactivity scintillation test using nickel chelate.
A complete recombinant Aurora2 enzyme, the N-terminal of which was labeled with histidine, was expressed in E. coli and purified to a quality close to homogeneity.
The C-terminal fragment (Q1687-H2101) of an NuMA (Nuclear protein which is associated with the Mitotic Apparatus) expressed in E. coli, and the N-terminal end of which was labeled with histidine, was purified by nickel chelate chromatography and used as substrate in the Aurora2 kinase test.
To determine the kinase activity, the substrate NuMA is equilibrated by chromatography on a PD10 Pharmacia column, in a buffer (50 mM Tris-HCl, pH 7.5, 50 mM NaCl, 10 mM MgCl2) supplemented with 10% (v/v) of glycerol and 0.05% (w/v) of NP40.
The kinase activity of Aurora2 is measured by scintillation with nickel chelate (New England Nuclear, SMP107 model). Each well contains 100 μl of the following solution: 0.02 μM of Aurora2; 0.5 μM of NuMA substrate; 1 μM of ATP supplemented with 0.5 μCi of ATP-[^33P]. The solutions are incubated for 30 minutes at 37° C. The test buffer is then removed and the wells are rinsed twice with 300 μl of kinase buffer. The radioactivity is measured in each well using a Packard Model Top Count NXT machine.
The background noise is deduced by measuring radioactivity measured in duplicate in wells containing the radioactive ATP alone containing buffered kinase treated in the same manner as for the other samples.
The activity of the control is determined by measuring in duplicate the radioactivity in the complete test mixture (ATP, Aurora2 and substrate NuMA), in the absence of test compound.
The inhibition of the activity of Aurora2 with a compound of the invention is expressed as a percentage of inhibition of the control activity in the absence of test compound. Staurosporin is added to each plate as inhibition control.
The activity of the products was determined by measuring the inhibition of Aurora2 activity.

CDK2/cycline E = target: T2, CDK2/cycline E (Homo sapiens, UniProt P24941); assay: CDK2/cyclineE Flashplate test in 96-well format; assay type: biochemical
T2 construct: made in house; host or cells: Sf21 insect cells (baculovirus coinfection)
Procedure: Purification of the CDK2/cyclineE-(His)6 Complex by IMAC (Immobilized Metal Affinity Chromatography):
Two recombinant baculoviruses bearing the human sequences coding, respectively, for CDK2 and cyclineE (the latter bearing a C-terminal hexahistidine tag) are used to coinfect Sf21 insect cells. Two to three days after the start of coinfection, the cells are harvested by centrifugation and then stored at −40° C. until the time of use. After thawing and mechanical lysis of the cells, the complex present in the lysis supernatant is purified by affinity chromatography on nickel (IMAC), and stored at −80° C.
CDK2/cyclineE Flashplate Test in 96-Well Format.
A format in streptavidin-coated 96-well plates is used to test the activity of the compounds on the kinase activity of CDK2/cycline E.
To perform this test, the biotinylated peptide substrate, a fragment of the protein pRb (biotinyl-[…]—OH) (SEQ ID NO: 1), is dissolved at a concentration of 1 mM in kinase buffer (HEPES/NaOH 50 mM, NaCl 1 mM, MgCl2 5 mM, pH 7.5) in order to constitute a stock solution stored at −20° C. in the form of 110 μL aliquots. On the day of the experiment, an aliquot of this solution is thawed and diluted in kinase buffer containing 1 mM of dithiothreitol, added to the buffer extemporaneously, in order to obtain a concentration of 14.3 μM. 70 μL of this solution are added to each well of the Flashplate in order to obtain a final substrate concentration of 10 μM during the enzymatic reaction performed in a final volume of the reaction medium of 100 μL (cf. below).
Intermediate dilutions of inhibitors (products of the invention) at various concentrations are prepared in DMSO from stock solutions at 10 mM in separate tubes. […]
When the incubation is complete, the plate is washed three times with 300 μL per well of PBS (phosphate-buffered saline, pH=7.4, without calcium or magnesium, reference 10010-015, Gibco BRL). The incorporation of ^33P to the peptide is quantified by scintillation counting with a Packard Topcount.NXT machine. […]

human Tie2 = target: T3, human Tie2 (Homo sapiens, UniProt Q02763); assay: Test of phosphorylation of PLC with Tie2 (GST-Tie2); assay type: biochemical
T3 construct: amino acids of the intracellular domain 776-1124; made in house; host or cells: baculovirus expression (pFastBacGT vector)
T3 sequence (Q02763 776-1124): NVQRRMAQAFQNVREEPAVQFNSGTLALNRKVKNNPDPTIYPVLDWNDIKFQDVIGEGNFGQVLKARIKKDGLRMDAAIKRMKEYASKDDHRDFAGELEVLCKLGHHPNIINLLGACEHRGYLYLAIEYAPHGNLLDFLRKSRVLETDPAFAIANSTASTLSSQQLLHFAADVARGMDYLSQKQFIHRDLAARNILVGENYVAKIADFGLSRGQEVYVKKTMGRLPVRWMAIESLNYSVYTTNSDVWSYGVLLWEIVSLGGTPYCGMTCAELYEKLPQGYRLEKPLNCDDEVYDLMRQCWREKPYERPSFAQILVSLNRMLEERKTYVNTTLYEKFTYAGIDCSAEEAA
Procedure: The coding sequence of human Tie2 corresponding to the amino acids of the intracellular domain 776-1124 was generated by PCR using the cDNA isolated from a human placenta as a model. This sequence was introduced into a pFastBacGT baculovirus expression vector in the form of a GST fusion protein.
The inhibitory effect of the molecules is determined in a test of phosphorylation of PLC with Tie2 in the presence of GST-Tie2 purified to about 80% homogeneity. The substrate is composed of the SH2-SH3 fragments of PLC expressed in the form of a GST fusion protein.
The kinase activity of Tie2 is measured in a MOPS 20 mM pH 7.2 buffer, containing 10 mM MgCl2, 10 mM MnCl2, 1 mM DTT, 10 mM of glycerophosphate. In a 96-well FlashPlate plate maintained on ice, a reaction mixture is deposited, composed of 70 μL of kinase buffer containing 100 ng of enzyme GST-Tie2 per well. Next, 10 μL of the test molecule diluted in DMSO to a maximum concentration of 10% are added. For a given concentration, each measurement is performed four times. The reaction is initiated by adding 20 μL of solution containing 2 μg of GST-PLC, 2 μm of cold ATP and 1 μCi of ^33P [ATP]. […] The radioactivity is measured on a MicroBeta1450 Wallac.
The inhibition of the Tie2 activity is calculated and expressed as a percentage of inhibition relative to the control activity determined in the absence of compound.

IC50 (Aurora2) [nM]	IC50 (CDK2/cycline E) [nM]	IC50 (human Tie2) [nM]	melting point [°C]	SMILES
< 50	< 500	< 500	–	O=C(Nc1n[nH]c2sc(C(=O)NOc3ccccc3)cc12)c1cccs1 [Example 3, 3-[(thiophene-2-carbonyl)amino]-1H-thieno[2,3-c]pyrazole-5-(N-phenoxycarboxamide)hydrochloride]
< 50	< 100	–	171	O=C(NOc1ccccc1)c1cc2c(-c3cc4ccccc4[nH]3)n[nH]c2s1 [Example 1, 3-(1H-indol-2-yl)-1H-thieno[2,3-c]pyrazole-5-(N-phenoxycarboxamide)]
< 50	522	–	142	O=C(NOc1ccccc1)c1cc2c(/C=C/c3ccccc3)n[nH]c2s1 [Example 2]
